In patent US9963439B2, “Specific inhibitors of cytochrome P450 26 retinoic acid hydroxylase” (University of Washington Through its Center for …, priority 2013, dated 2018):
Where two headings read alike, the source gives them in different places. Values belong to the molecule of their own block, whether it stands above or below them.

How the values were obtained:
[1] = target: T1, CYP26B1 (Homo sapiens (Human), UniProt Q9NR63); assay: CYP26B1 inhibition assay (9-cis-4-OH-RA formation from 9-cis-RA, recombinant microsomes); type: biochemical
T1 sequence (Q9NR63 whole entry): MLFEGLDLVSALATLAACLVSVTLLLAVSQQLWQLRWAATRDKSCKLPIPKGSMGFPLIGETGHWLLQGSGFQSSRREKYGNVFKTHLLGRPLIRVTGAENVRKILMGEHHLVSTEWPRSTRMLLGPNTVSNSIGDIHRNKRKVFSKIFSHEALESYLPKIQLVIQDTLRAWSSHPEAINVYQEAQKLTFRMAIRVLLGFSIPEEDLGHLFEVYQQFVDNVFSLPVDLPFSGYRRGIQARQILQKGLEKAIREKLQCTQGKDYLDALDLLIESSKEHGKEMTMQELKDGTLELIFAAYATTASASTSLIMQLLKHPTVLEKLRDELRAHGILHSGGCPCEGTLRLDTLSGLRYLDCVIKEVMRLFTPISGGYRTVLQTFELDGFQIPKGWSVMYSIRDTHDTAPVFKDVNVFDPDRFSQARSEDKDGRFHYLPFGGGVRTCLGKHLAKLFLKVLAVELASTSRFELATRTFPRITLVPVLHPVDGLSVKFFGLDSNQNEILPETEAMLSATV

[2] = target: CYP26A1 (Homo sapiens (Human), UniProt O43174); assay: CYP26A1 inhibition assay (9-cis-4-OH-RA formation from 9-cis-RA, recombinant microsomes); type: biochemical; conditions: for inhibition at 100 µM: read-out: Maximum inhibition of CYP26A1 observed; for CYP26A1/CYP26B1: ratio of IC50 values, Table 2
Sequence of CYP26A1 (O43174 whole entry): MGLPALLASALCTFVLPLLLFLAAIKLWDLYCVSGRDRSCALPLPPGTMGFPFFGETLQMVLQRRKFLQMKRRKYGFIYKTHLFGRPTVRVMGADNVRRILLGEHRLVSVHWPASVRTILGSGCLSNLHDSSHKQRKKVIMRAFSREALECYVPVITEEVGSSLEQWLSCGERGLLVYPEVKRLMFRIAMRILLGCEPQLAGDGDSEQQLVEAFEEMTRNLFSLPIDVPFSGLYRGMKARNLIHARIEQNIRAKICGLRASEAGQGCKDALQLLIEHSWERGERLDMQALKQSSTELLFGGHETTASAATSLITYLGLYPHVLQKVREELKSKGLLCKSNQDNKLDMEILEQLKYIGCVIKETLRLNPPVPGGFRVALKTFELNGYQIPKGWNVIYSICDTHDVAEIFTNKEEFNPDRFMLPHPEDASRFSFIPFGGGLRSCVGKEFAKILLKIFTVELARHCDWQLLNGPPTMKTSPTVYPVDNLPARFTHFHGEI

[3] = target: CYP2C8 (Homo sapiens (Human), UniProt P10632); assay: Inhibition of CYP2C8 in pooled human liver microsomes (paclitaxel probe); type: in vitro ADME
Sequence of CYP2C8 (P10632 whole entry): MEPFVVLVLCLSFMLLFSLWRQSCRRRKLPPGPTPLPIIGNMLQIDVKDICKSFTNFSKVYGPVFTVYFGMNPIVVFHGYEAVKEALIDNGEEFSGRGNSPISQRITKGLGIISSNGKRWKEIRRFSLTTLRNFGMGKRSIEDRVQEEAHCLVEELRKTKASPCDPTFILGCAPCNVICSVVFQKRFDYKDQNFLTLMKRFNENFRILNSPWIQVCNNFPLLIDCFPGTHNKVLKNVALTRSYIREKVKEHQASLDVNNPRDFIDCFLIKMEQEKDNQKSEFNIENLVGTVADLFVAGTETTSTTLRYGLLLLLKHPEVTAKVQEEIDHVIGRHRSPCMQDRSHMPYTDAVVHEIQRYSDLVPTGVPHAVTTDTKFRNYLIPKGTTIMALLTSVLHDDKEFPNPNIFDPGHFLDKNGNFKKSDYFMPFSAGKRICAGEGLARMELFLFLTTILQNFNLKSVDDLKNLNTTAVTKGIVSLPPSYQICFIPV

[4] = target: CYP3A4 (Homo sapiens (Human), UniProt P08684); assay: Inhibition of CYP3A4 in pooled human liver microsomes (midazolam probe); type: in vitro ADME
Sequence of CYP3A4 (P08684 whole entry): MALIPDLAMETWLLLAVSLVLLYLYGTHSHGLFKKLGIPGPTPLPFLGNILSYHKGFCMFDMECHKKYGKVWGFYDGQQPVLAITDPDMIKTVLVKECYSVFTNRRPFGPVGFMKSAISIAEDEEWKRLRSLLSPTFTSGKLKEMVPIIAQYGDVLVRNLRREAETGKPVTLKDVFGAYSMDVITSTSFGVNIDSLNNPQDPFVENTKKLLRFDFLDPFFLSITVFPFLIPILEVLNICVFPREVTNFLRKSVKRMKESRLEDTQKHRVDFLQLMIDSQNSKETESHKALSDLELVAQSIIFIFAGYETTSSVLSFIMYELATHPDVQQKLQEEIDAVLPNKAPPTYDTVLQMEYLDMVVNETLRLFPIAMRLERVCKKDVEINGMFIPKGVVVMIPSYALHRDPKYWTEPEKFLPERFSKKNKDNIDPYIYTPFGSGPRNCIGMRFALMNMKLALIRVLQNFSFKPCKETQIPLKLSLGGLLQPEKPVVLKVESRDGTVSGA

[5] = target: CYP2C9 (Homo sapiens (Human), UniProt P11712); assay: Inhibition of CYP2C9 in pooled human liver microsomes (diclofenac probe)
Sequence of CYP2C9 (P11712 whole entry): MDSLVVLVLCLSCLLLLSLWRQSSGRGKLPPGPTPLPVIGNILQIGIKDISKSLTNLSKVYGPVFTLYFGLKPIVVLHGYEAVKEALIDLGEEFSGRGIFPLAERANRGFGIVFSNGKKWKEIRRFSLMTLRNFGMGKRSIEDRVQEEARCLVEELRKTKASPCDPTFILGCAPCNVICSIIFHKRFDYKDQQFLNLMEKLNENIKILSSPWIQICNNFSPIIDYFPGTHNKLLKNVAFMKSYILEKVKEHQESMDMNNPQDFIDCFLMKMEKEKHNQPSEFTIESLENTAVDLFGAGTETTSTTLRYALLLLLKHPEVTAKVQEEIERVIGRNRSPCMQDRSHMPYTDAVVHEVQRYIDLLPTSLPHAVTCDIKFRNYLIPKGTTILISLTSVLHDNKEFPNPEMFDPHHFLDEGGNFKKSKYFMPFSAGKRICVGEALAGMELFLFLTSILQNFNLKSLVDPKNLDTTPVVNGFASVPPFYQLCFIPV

[6] = animal models; cited from earlier work
[7] = tested on: cytochromes involved in the biosynthetic pathways of testicular, ovarian and adrenal steroids; conditions: Berth-Jones 2000; Bruynseels 1990; cited from earlier work
[8] = target: T1, CYP26B1; assay: Michaelis-Menten kinetics of RA hydroxylation by CYP26B1
[9] = Table 3, unit inferred, read-out: CYP2681 (CYP26B1, IC50)
[10] = Table 3, unit inferred, read-out: CYP26A1 (IC50)
[11] = Table 4, acidic compounds, unit inferred, read-out: CYP26B1 (IC50)
[12] = Table 4, acidic compounds, unit inferred, read-out: CYP26A1 (IC50)
[13] = pooled human liver microsomes, paclitaxel 4 μM
[14] = read-out: CYP2C9 IC50 nM, pooled human liver microsomes, diclofenac 5 μM

- IC50 [1, 9]: 4 µM
- IC50 [2, 10]: 12.3 µM
SMILES: C=C(c1ccc(C(=O)O)cc1)c1cc2c(cc1C)C(C)(C)CCC2(C)C

- inhibition at 100 µM [2]: 15%
SMILES: COC(=O)c1ccc(OCC(=O)c2ccc3c(c2)C(C)(C)CCC3(C)C)cc1

- CYP26A1/CYP26B1 [2]: 7
SMILES: COC(=O)c1ccc(OC/C(=N\O)c2ccc3c(c2)C(C)(C)CCC3(C)C)cc1

- CYP26A1/CYP26B1 [2]: 9
SMILES: CC1(C)CCC(C)(C)c2cc(C#Cc3ccc(C(=O)O)cc3)ccc21

- CYP26A1/CYP26B1 [2]: 1.1
SMILES: C/C(=C\c1ccc(C(=O)O)cc1)c1ccc2c(c1)C(C)(C)CCC2(C)C

- CYP26A1/CYP26B1 [2]: 1.8
SMILES: CC1(C)CCC(C)(C)c2cc(NC(=O)c3ccc(C(=O)O)cc3)ccc21

- CYP26A1/CYP26B1 [2]: 2
SMILES: CC1(C)CCC(C)(C)c2cc(C(O)COc3ccc(C(=O)O)cc3)ccc21 (stereo not shown)

- IC50 [1, 11]: 1.09 µM
- IC50 [2, 12]: 1.28 µM
SMILES: CC1(C)CCC(C)(C)c2cc(C3(c4ccc(C(=O)O)cc4)SCCS3)ccc21

- CYP26A1/CYP26B1 [2]: 47
SMILES: CC1(C)CCSc2ccc(C#Cc3ccc(C(=O)O)cn3)cc21

- CYP26A1/CYP26B1 [2]: 8
SMILES: COC(=O)c1ccc(OC/C(=N/O)c2ccc3c(c2)C(C)(C)CCC3(C)C)cc1

- IC50 [1, 9]: 1.03 µM
- IC50 [2, 10]: 0.061 µM
SMILES: CC1(C)CCC(C)(C)c2cc(C3(c4ccc5cc(C(=O)O)ccc5c4)SCCS3)ccc21 [drawing 146]

- CYP26A1/CYP26B1 [2]: 2.5
SMILES: CC1(C)CCC(C)(C)c2cc(C(=O)Nc3ccc(C(=O)O)cc3)ccc21

- inhibition at 100 µM [2]: 15%
SMILES: CCOC(=O)c1ccc(C#Cc2ccc3c(c2)C(C)(C)CCS3)nc1

- IC50 [2, 12]: 0.061 µM
SMILES: CC1(C)CCC(C)(C)c2cc(C3(c4ccc5cc(C(=O)O)ccc5c4)SCCS3)ccc21 [drawing 152]

- IC50 [1, 11]: 12.6 µM
- IC50 [2, 12]: 7.78 µM
SMILES: CC1(C)CCC(C)(C)c2cc(C3(c4ccc(C(=O)O)cc4)OCCO3)ccc21 [drawing 148]

- IC50 ([1]; Table 5, read-out: CYP26B1): 1.66 µM
- IC50 ([2]; Table 5, read-out: CYP26A1): > 10 µM
SMILES: CC1(C)CCC(C)(C)c2cc(Cc3ccc(CCC(=O)O)cc3)ccc21

- CYP26A1/CYP26B1 [2]: 3
SMILES: CC1(C)CCC(C)(C)c2cc(/C(COc3ccc(C(=O)O)cc3)=N\O)ccc21

- IC50 [1, 9]: 14.2 µM
- IC50 [2, 10]: 3.3 µM
SMILES: CC1(C)CCC(C)(C)c2cc(C3(c4ccc(C(=O)O)cc4)OCCO3)ccc21 [drawing 145]

- CYP26A1/CYP26B1 [2]: 4
SMILES: CC1(C)CCC(C)(C)c2cc(C(=O)COc3ccc(C(=O)O)cc3)ccc21

Continued, molecule first:

SMILES: COc1ccc(Nc2ccc(CCC(=O)O)cc2)cc1C12CC3CC(CC(C3)C1)C2
- IC50 ([1]; Table 5, read-out: CYP26B1): 0.051 µM
- IC50 ([2]; Table 5, read-out: CYP26A1): 0.051 µM

SMILES: CC1(C)CCC(C)(C)c2cc(C3(c4ccc(/C=C/C(=O)O)cc4)OCCO3)ccc21
- IC50 ([1]; Table 5, read-out: CYP26B1): > 10 µM
- IC50 ([2]; Table 5, read-out: CYP26A1): 0.239 µM

SMILES: COc1ccc(Nc2ccc(/C=C/C(=O)O)cc2)cc1C12CC3CC(CC(C3)C1)C2
- IC50 ([1]; Table 5, read-out: CYP26B1): 0.087 µM
- IC50 ([2]; Table 5, read-out: CYP26A1): 0.729 µM

SMILES: CC1(C)C(=O)C(C)(C)c2cc(C(=O)Nc3ccc(C(=O)O)cc3)ccc21
- CYP26A1/CYP26B1 [2]: 0.6

SMILES: O=C(O)CCc1ccc(Nc2ccc(O)c(C34CC5CC(CC(C5)C3)C4)c2)cc1
- IC50 ([1]; Table 5, read-out: CYP26B1): 0.108 µM
- IC50 ([2]; Table 5, read-out: CYP26A1): 1.75 µM

SMILES: CC1(C)CCC(C)(C)c2cc(C3(c4ccc5cc(C(=O)O)ccc5c4)OCCO3)ccc21
- IC50 [1, 11]: 1.03 µM
- IC50 [2, 12]: 0.109 µM

SMILES: O=C(O)CCc1ccc(-c2ccc(O)c(C34CC5CC(CC(C5)C3)C4)c2)cc1
- IC50 ([1]; Table 5, read-out: CYP26B1): 0.302 µM
- IC50 ([2]; Table 5, read-out: CYP26A1): 0.314 µM

SMILES: COc1ccc(-c2ccc(CCC(=O)O)cc2)cc1C12CC3CC(CC(C3)C1)C2
- IC50 ([1]; Table 5, read-out: CYP26B1): 0.516 µM

SMILES: CC(C(c1ccc(Nc2nc3ccccc3s2)cc1)n1ccnc1)N(C)C (stereo not shown) [Example R116010, R116010]
- IC50 ([3]; bound stated): > 1 µM
- IC50 [3, 13]: 1.76 µM
- Inhibition of CYP3A4 (in words) [4]: potent CYP3A4 inhibitors
- IC50 [5]: > 1000 nM
- IC50 [5, 14]: 5760 nM

SMILES: CCC(CC)[C@H](c1ccc(Nc2nc3ccccc3s2)cc1)n1cncn1 [talarozole, (R)—N-[4-[2-ethyl-1-(1H-1,2,4-triazol-1-yl)butyl]phenyl]-2-benzo-thiazolamine]
- Inhibition of CYP2C8 (in words) ([3]; pooled human liver microsomes): nanomolar affinity
- IC50 [3, 13]: 0.22 µM
- effect on concentration of atRA in vivo [6]: increase the concentration of atRA in vivo
- Inhibition of CYP3A4 (in words) [4]: nanomolar affinity
- Inhibition of CYP2C9 (in words) ([5]; pooled human liver microsomes): nanomolar affinity
- IC50 [5, 14]: 680 nM
- IC50 ([1]; Table 5, read-out: CYP26B1): 0.00046 µM
- IC50 ([2]; Table 5, read-out: CYP26A1): 0.0051 µM

SMILES: Clc1cccc(C(c2ccc3[nH]cnc3c2)n2ccnc2)c1 (stereo not shown) [liarozole]
- Inhibition of CYP2C8 (in words) ([3]; pooled human liver microsomes): inhibited CYP2C8 potently
- IC50 [3, 13]: 0.48 µM
- effect on concentration of atRA in vivo [6]: increase the concentration of atRA in vivo
- inhibition of other cytochromes of steroid biosynthesis [7]: also inhibits other cytochromes involved in the biosynthetic pathways of testicular, ovarian and adrenal steroids
- Inhibition of CYP3A4 (in words) [4]: weak inhibitor
- Inhibition of CYP2C9 (in words) ([5]; pooled human liver microsomes): weak inhibitor
- IC50 [5, 14]: 1630 nM
- IC50 ([1]; Table 5, read-out: CYP26B1): 0.018 µM

SMILES: COc1ccc(-c2ccc(/C=C/C(=O)O)cc2)cc1C12CC3CC(CC(C3)C1)C2
- IC50 ([1]; Table 5, read-out: CYP26B1): > 25 µM
- IC50 ([2]; Table 5, read-out: CYP26A1): > 25 µM

SMILES: CC1(C)CCC(C)(C)c2cc(C3(c4ccc(CCC(=O)O)cc4)OCCO3)ccc21
- IC50 ([1]; Table 5, read-out: CYP26B1): 14.5 µM
- IC50 ([2]; Table 5, read-out: CYP26A1): 0.34 µM

SMILES: CC1(C)CCC(C)(C)c2cc(C3(c4ccc(/C=C/C(=O)O)cc4)SCCS3)ccc21
- IC50 ([1]; Table 5, read-out: CYP26B1): 4.4 µM
- IC50 ([2]; Table 5, read-out: CYP26A1): 0.006 µM

SMILES: CC1=C(/C=C/C(C)=C\C=C\C(C)=C\C(=O)O)C(C)(C)CCC1 [Example 9-cis-RA, 9-cis-RA]
- Vmax for 9-cis-4-OH-RA formation by CYP26B1 [8]: 3.6 pmol/min/pmol P450
- fold greater Km than atRA for CYP26B1 [8]: 50 fold
- intrinsic clearance ([8]; from Km and Vmax): 6.5 µL/min
- Km ([8]; read-out: Km for 9-cis-4-OH-RA formation by CYP26B1, substrate 9-cis-RA 50-1000 nM, 5 min): 0.555 µM

SMILES: CC1=C(/C=C/C(C)=C/C=C/C(C)=C/C(=O)O)C(C)(C)CCC1 [atRA, all-trans-retinoic acid]
- Km ([8]; read-out: Km of atRA for CYP26B1): 0.019 µM

SMILES: O=C(O)/C=C/c1ccc(Nc2ccc(O)c(C34CC5CC(CC(C5)C3)C4)c2)cc1
- IC50 ([1]; Table 5, read-out: CYP26B1): 0.095 µM
- IC50 ([2]; Table 5, read-out: CYP26A1): 0.232 µM
